A short description of data set [1]: General cytotoxicity on HepG2 cells. It counts as cell-based. As to conditions: human; general cytotoxicity, HepG2 cells, 72 hours, average of several tests. In outline: (§1)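 HepG2 cells seeded at 2*10^4 cells per well and compounds added in DMEM with 2% FBS for 72 h at 37 °C. Viability read with Alamar Blue and CC50 derived as for IC50. Therapeutic index taken as HepG2 CC50 over H1975 IC50.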

A further data set deals with HepG2 cells. The data set is described as follows: General cytotoxicity on HepG2 cells. It is filed as cell-based. Conditions: therapeutic index, CC50 HepG2 / IC50 H1975. In outline:
as §1

Data set [2] in a line: Chemical stability in simulated intestinal fluid (SIF). It counts as physicochemical. As to conditions: SIF without enzymes, pH 6.5; 10 μm; 2 hours at 37° C.; substance amount remaining. A digest of the protocol: (§2)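 Compound at 10 μm (diluted from 10 mM DMSO stock) incubated 2 h at 37° C in enzyme-free SGF, pH=1,4, or enzyme-free SIF, pH=6.5. HPLC peak areas before and after incubation give % compound remaining.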

The next data set deals with T1, WT EGFR (Wild-Type EGFR) (Homo sapiens, UniProt P00533).
T1 construct: purchased SignalChem
T1 sequence (P00533 25-1210): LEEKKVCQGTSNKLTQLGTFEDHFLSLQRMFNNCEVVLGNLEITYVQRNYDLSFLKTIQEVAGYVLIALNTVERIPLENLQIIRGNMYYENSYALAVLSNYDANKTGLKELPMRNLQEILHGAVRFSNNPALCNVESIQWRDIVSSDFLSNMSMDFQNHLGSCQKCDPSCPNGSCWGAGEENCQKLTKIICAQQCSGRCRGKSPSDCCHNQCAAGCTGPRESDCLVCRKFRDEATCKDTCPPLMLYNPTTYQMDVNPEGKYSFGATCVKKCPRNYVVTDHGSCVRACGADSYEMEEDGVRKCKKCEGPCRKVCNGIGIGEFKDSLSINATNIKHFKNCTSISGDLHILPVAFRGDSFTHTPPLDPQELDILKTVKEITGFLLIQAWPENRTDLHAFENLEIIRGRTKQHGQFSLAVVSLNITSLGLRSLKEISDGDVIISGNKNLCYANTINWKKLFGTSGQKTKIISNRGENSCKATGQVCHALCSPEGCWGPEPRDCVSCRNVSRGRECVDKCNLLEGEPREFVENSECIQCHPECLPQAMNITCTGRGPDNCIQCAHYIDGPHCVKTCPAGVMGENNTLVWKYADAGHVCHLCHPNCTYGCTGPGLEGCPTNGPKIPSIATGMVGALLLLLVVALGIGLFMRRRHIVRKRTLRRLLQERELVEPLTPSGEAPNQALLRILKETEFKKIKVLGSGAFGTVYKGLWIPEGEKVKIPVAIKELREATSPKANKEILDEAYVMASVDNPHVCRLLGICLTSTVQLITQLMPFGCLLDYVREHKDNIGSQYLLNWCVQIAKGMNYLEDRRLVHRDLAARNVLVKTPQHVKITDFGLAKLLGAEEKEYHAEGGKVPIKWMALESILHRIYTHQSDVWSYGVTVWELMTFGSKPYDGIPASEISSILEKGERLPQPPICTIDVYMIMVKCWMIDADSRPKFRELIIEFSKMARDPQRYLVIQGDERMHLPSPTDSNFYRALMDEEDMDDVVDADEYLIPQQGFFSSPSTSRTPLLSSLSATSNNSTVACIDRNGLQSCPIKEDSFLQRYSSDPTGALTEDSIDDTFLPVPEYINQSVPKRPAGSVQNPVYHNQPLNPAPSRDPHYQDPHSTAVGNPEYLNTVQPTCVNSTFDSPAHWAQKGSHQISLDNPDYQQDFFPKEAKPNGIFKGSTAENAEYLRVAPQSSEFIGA
The data set is described as follows: Inhibition of WT EGFR kinase activity (ADP-Glo). It is filed as biochemical. A digest of the protocol: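 Luminescent ADP-Glo readout was used for both wild-type and L858R/T790M EGFR, each run 180 minutes at 37° C. Reactions used a solution of 50 μM ATP with 0.5 mg/mL peptide substrate. Four-parameter logistic curves gave IC50.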

Data set [3] is described as follows: Chemical stability in simulated gastric fluid (SGF). It counts as physicochemical. Conditions: SGF without enzymes, pH 1,4; 10 μm; 2 hours at 37° C.; substance amount remaining. In outline:
as §2

Data set [4] deals with A549 (lung adenocarcinoma, WT). The data set is described as follows: Antiproliferative activity on A549 cells (Alamar Blue). It counts as cell-based. As to conditions: Homo sapiens, antiproliferative test. A digest of the protocol:
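Viability read by Alamar Blue fluorescence (λEx 540, λEm 590 nm) 3-5 h after dye addition, following 72 h compound treatment at 37° C in 2% FBS RPMI-1640, ≤1% DMSO. Seeding 5*10^3 cells/well, 16-18 h attachment. Four-parameter logistic model gave IC50.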

These results are taken from patent US20200339544A1 (JOINT STOCK COMPANY "BIOCAD", priority 2017, published 2020).

Broadly, the CC50 is the concentration at which the toxic effect on the cells reaches its halfway point. High values mean better tolerance by the cells, low ones harm at low concentration. As usually defined, the IC50 is the concentration that gives 50% inhibition. Low values mean greater potency in that assay, high ones weaker potency in that assay.

Structures can show the parent of a compound that is named as a salt.

`C=CC(=O)Nc1cc(Nc2nccc(C(=O)c3ccc(OCC)cc3)n2)c(OC)cc1N(C)CCN(C)C` [EGFR_3365_29, N-(2-((2-(dimethylamino)ethyl)(methyl)amino)-5-((4-(4-ethoxybenzoyl)pyrimidin-2-yl)amino)-4-methoxyphenyl) acrylamide]: in data set [1], the 50% cytotoxic concentration (CC50) at 72 h came out at 30.6 µM. For the same compound, the “TI, CC50/IC50” value in the data set on HepG2 cells is reported as 1135. For the same compound, the “Stability in SIF, %” value in data set [2] is 100.0%. In addition, the IC50 is 202 nM against WT EGFR (Wild-Type EGFR) and 16 µM in data set [4]. Moreover, in data set [3], the “Stability in SGF, %” value is reported as 98.1%.

On to `C=CC(=O)Nc1cc(Nc2nccc(C(=O)c3ccc(OCCC)cc3)n2)c(OC)cc1N(C)CCN(C)C` [EGFR_3365_30, N-(2-((2-(dimethylamino)ethyl)(methyl)amino)-4-methoxy-5-((4-(4-propoxybenzoyl)pyrimidin-2-yl)amino)phenyl)acrylamide], for which, in data set [1], the CC50 at 72 h came out at 10.9 µM. In addition, the “TI, CC50/IC50” value with HepG2 cells turned out to be 666. For the same compound, in data set [2], the “Stability in SIF, %” value is listed as 92.9%. For the same compound, the IC50 was determined as 613 nM at WT EGFR (Wild-Type EGFR) and 5.54 µM in data set [4]. Further, in data set [3], the “Stability in SGF, %” value is 100.0%.

As to `C=CC(=O)Nc1cc(Nc2nccc(C(=O)c3ccc(OC(C)C)cc3)n2)c(OC)cc1N(C)CCN(C)C` [EGFR_3365_31, N-(2-((2-(dimethylamino)ethyl)(methyl)amino)-5-((4-(4-isopropoxybenzoyl)pyrimidin-2-yl)amino)-4-methoxyphenyl) acrylamide], in data set [1], the CC50 at 72 h was determined as 9.49 µM. Further, the “TI, CC50/IC50” value in the data set on HepG2 cells came out at 1293. Also, the “Stability in SIF, %” value in data set [2] is given as 97.2%. The IC50 was 131 nM against WT EGFR (Wild-Type EGFR) and 11.1 µM in data set [4]. Further, the “Stability in SGF, %” value in data set [3] is recorded as 100.0%.

In data set [1], `C=CC(=O)Nc1cc(Nc2cc(C(=O)c3ccc(OCCC)cc3)ccn2)c(OC)cc1N(C)CCN(C)C` [EGFR_3365_50, N-(2-((2-(dimethylamino)ethyl)(methyl)amino)-4-methoxy-5-((4-(4-propoxybenzoyl)pyridin-2-yl)amino)phenyl)acrylamide] displayed a CC50 at 72 h of 12.4 µM. The “TI, CC50/IC50” value in the data set with HepG2 cells was found to be 262. Further, the “Stability in SIF, %” value in data set [2] is 98.5%. The IC50 against WT EGFR (Wild-Type EGFR) was found to be 32 nM; in data set [4], 4.92 µM. The “Stability in SGF, %” value in data set [3] is 100.0%.

`C=CC(=O)Nc1cc(Nc2cc(C(=O)c3ccc(OC)cc3)ccn2)c(OC)cc1N(C)CCN(C)C` [EGFR_3365_51, N-(2-((2-(dimethylamino)ethyl)(methyl)amino)-4-methoxy-5-((4-(4-methoxybenzoyl)pyridin-2-yl)amino)phenyl)acrylamide] had a CC50 at 72 h in data set [1] of 20.9 µM. Also, the “TI, CC50/IC50” value in the data set with HepG2 cells came to 620. Also, in data set [2], the “Stability in SIF, %” value is on record as 100.0%. Also, the values for the IC50 (at WT EGFR (Wild-Type EGFR); in data set [4]) were 50.8 nM and 11.5 µM, respectively. Further, the “Stability in SGF, %” value in data set [3] is listed as 100.0%.

`C=CC(=O)Nc1cc(Nc2cc(C(=O)c3ccc(OCC)cc3)ccn2)c(OC)cc1N(C)CCN(C)C` [EGFR_3365_52, N-(2-((2-(dimethylamino)ethyl)(methyl)amino)-5-((4-(4-ethoxybenzoyl)pyridin-2-yl)amino)-4-methoxyphenyl) acrylamide] registered a half-maximal cytotoxic concentration (CC50) at 72 h in data set [1] of 15.6 µM. Further, the “TI, CC50/IC50” value in the data set with HepG2 cells was 237. Moreover, in data set [2], the “Stability in SIF, %” value is listed as 100.0%. Besides, the IC50 against WT EGFR (Wild-Type EGFR) was 67.9 nM; in data set [4] it was 10.8 µM. In data set [3], the “Stability in SGF, %” value is recorded as 100.0%.

For `C=CC(=O)Nc1cc(Nc2cc(C(=O)c3ccc(N4CCN(C)CC4)cc3)ccn2)c(OC)cc1N(C)CCN(C)C` [EGFR_3365_55, N-(2-((2-(dimethylamino)ethyl)(methyl)amino)-4-methoxy-5-((4-(4-(4-methylpiperazin-1-yl)benzoyl)pyridin-2-yl)amino)phenyl)acrylamide], the CC50 at 72 h in data set [1] turned out to be 13.3 µM. Moreover, in the data set on HepG2 cells, the “TI, CC50/IC50” value turned out to be 63. In data set [2], the “Stability in SIF, %” value was 97.2%. Besides, the IC50 against WT EGFR (Wild-Type EGFR) is 76.6 nM; in data set [4], 11.6 µM. The “Stability in SGF, %” value in data set [3] is given as 98.8%.

In the case of `C=CC(=O)Nc1cc(Nc2cc(C(=O)c3ccc(N4CCCC4)cc3)ccn2)c(OC)cc1N(C)CCN(C)C` [EGFR_3365_56, N-(2-((2-(dimethylamino)ethyl)(methyl)amino)-4-methoxy-5-((4-(4-(pyrrolidin-1-yl)benzoyl)pyridin-2-yl)amino)phenyl)acrylamide], in data set [1], the half-maximal cytotoxic concentration (CC50) at 72 h worked out at 9.51 µM. For the same compound, the “TI, CC50/IC50” value in the data set on HepG2 cells was determined as 325. Also, the “Stability in SIF, %” value in data set [2] is 96.4%. In addition, the figures for the 50% inhibitory concentration (IC50) (on WT EGFR (Wild-Type EGFR); in data set [4]) were 121 nM and 4.54 µM, respectively. For the same compound, the “Stability in SGF, %” value in data set [3] is 99.8%.

As to `C=CC(=O)Nc1cc(Nc2nccc(C(=O)c3ccc(N4CCC4)cc3)n2)c(OC)cc1N(C)CCN(C)C` [EGFR_3365_58, N-(5-((4-(4-(azetidin-1-yl)benzoyl)pyrimidin-2-yl)amino)-2-((2-(dimethylamino)ethyl)(methyl)amino)-4-methoxyphenyl)acrylamide], the midpoint of cytotoxicity in data set [1], the CC50 at 72 h, lay at 44.4 µM. For the same compound, the “TI, CC50/IC50” value with HepG2 cells is given as 4241. The “Stability in SIF, %” value in data set [2] is given as 100.0%. In addition, the figures for the IC50 (at WT EGFR (Wild-Type EGFR); in data set [4]) were 39.7 nM and over 10 µM, respectively. Moreover, in data set [3], the “Stability in SGF, %” value is recorded as 89.9%.

Take `C=CC(=O)Nc1cc(Nc2nccc(C(=O)c3ccc(N4CC(OC)C4)cc3)n2)c(OC)cc1N(C)CCN(C)C` [EGFR_3365_61, N-(2-((2-(dimethylamino)ethyl)(methyl)amino)-4-methoxy-5-((4-(4-(3-methoxyazetidin-1-yl)benzoyl)pyrimidin-2-yl)amino)phenyl)acrylamide]: in data set [1], the CC50 at 72 h was 43 µM. In the data set with HepG2 cells, the “TI, CC50/IC50” value came out at 5296. In data set [2], the “Stability in SIF, %” value was 98.8%. The IC50 worked out at 53.1 nM against WT EGFR (Wild-Type EGFR) and 23.4 µM in data set [4]. The “Stability in SGF, %” value in data set [3] was 100.0%.

With `C=CC(=O)Nc1cc(Nc2nccc(C(=O)c3ccc(N4CCN(C)CC4)cc3)n2)c(OC)cc1N(C)CCN(C)C` [EGFR_3365_62, N-(2-((2-(dimethylamino)ethyl)(methyl)amino)-4-methoxy-5-((4-(4-(4-methylpiperazin-1-yl)benzoyl)pyrimidin-2-yl)amino)phenyl)acrylamide formate], the half-maximal cytotoxic concentration (CC50) at 72 h in data set [1] was found to be 31.1 µM. The “TI, CC50/IC50” value in the data set on HepG2 cells was determined as 512. For the same compound, in data set [2], the “Stability in SIF, %” value is listed as 100.0%. Further, the IC50 against WT EGFR (Wild-Type EGFR) was determined as 127 nM; in data set [4], 12.3 µM. Also, in data set [3], the “Stability in SGF, %” value was 100.0%.

`C=CC(=O)Nc1cc(Nc2nccc(C(=O)c3ccc(N4CCCC4)cc3)n2)c(OC)cc1N(C)CCN(C)C` [EGFR_3365_63, N-(2-((2-(dimethylamino)ethyl)(methyl)amino)-4-methoxy-5-((4-(4-(pyrrolidin-1-yl)benzoyl)pyrimidin-2-yl)amino)phenyl)acrylamide] came in with a half-maximal cytotoxic concentration (CC50) at 72 h in data set [1] of 13 µM. Moreover, in the data set on HepG2 cells, the “TI, CC50/IC50” value is 2239. Besides, in data set [2], the “Stability in SIF, %” value was 100.0%. Besides, the results for the half-inhibitory concentration (IC50) (on WT EGFR (Wild-Type EGFR); in data set [4]) were 22.9 nM and 10.8 µM, respectively. Further, the “Stability in SGF, %” value in data set [3] is on record as 100.0%.

As to `C=CC(=O)Nc1cc(Nc2nccc(C(=O)c3ccc(OCCCC)cc3)n2)c(OC)cc1N(C)CCN(C)C` [EGFR_3365_66, N-(5-((4-(4-butoxybenzoyl)pyrimidin-2-yl)amino)-2-((2-(dimethylamino)ethyl)(methyl)amino)-4-methoxyphenyl)acrylamide], in data set [1], the half-maximal cytotoxic concentration (CC50) at 72 h was 9.64 µM. The “TI, CC50/IC50” value in the data set with HepG2 cells amounted to 278. Further, in data set [2], the “Stability in SIF, %” value is 96.5%. The IC50 against WT EGFR (Wild-Type EGFR) turned out to be 46.8 nM; in data set [4] it was 4.64 µM. The “Stability in SGF, %” value in data set [3] is 100.0%.

For the compound `C=CC(=O)Nc1cc(Nc2nccc(C(=O)c3ccc(OCC)cc3OCC)n2)c(OC)cc1N(C)CCN(C)C` [EGFR_3365_68, N-(5-((4-(2,4-diethoxybenzoyl)pyrimidin-2-yl)amino)-2-((2-(dimethylamino)ethyl) (methyl)amino)-4-methoxyphenyl)acrylamide], the CC50 at 72 h in data set [1] is 28.6 µM. Further, in the data set with HepG2 cells, the “TI, CC50/IC50” value came to 825. Besides, the “Stability in SIF, %” value in data set [2] was 98.2%. Further, the IC50 stood at 93.9 nM at WT EGFR (Wild-Type EGFR) and 8.14 µM in data set [4]. For the same compound, the “Stability in SGF, %” value in data set [3] was 100.0%.

Turning to `C=CC(=O)Nc1cc(Nc2nccc(C(=O)c3ccc(OC)cc3OC)n2)c(OC)cc1N(C)CCN(C)C` [EGFR_3365_69, N-(5-((4-(2,4-dimethoxybenzoyl)pyrimidin-2-yl)amino)-2-((2-(dimethylamino)ethyl)(methyl)amino)-4-methoxyphenyl)acrylamide], the CC50 at 72 h in data set [1] was 51.9 µM. Moreover, the “TI, CC50/IC50” value in the data set on HepG2 cells came to 6549. Also, in data set [2], the “Stability in SIF, %” value was 100.0%. For the same compound, the half-inhibitory concentration (IC50) was 23.6 nM against WT EGFR (Wild-Type EGFR) and over 10 µM in data set [4]. Further, the “Stability in SGF, %” value in data set [3] is recorded as 100.0%.
